Measured values published in ChEMBL document CHEMBL3832027, “DailyMed|setid=517fbb02-8793-4647-83c7-25a91be49622 | LEVITRA - vardenafil hydrochloride tablet, film coated|PD-Rx Pharmaceuticals, Inc”.

How the values were obtained:
Homo sapiens = assay: Mean steady-state volume of distribution (Vss) for Vardenafil following oral doses of Vardenafil.; type: ADME, organism-based; conditions: in vivo, dose 20 mg, dosed compound id 28, dosed compound name VARDENAFIL HYDROCHLORIDE, gender male, regimen Multiple dose, tissue Plasma
[1] = Evaluation of pharmacokinetic parameters for Vardenafil evaluated following single oral administration of Vardenafil to healthy male volunteers.; type: ADME, organism-based; conditions: human, in vivo, dose 20 mg, dosed compound id 28, dosed compound name VARDENAFIL HYDROCHLORIDE, gender male, regimen Single dose, tissue Plasma

Q: Which Vss (Homo sapiens) does the source give for `CCCc1nc(C)c2c(=O)nc(-c3cc(S(=O)(=O)N4CCN(CC)CC4)ccc3OCC)[nH]n12.Cl` [VARDENAFIL HYDROCHLORIDE] here?
A: 208 L

Q: And the Tmax ([1]; dietary status Fasting)?
A: 0.5 to 2 h

Q: What about the half-life [1] of the same molecule?
A: 4 to 5 h
